These results are taken from PMC9855432, “Novel Set of Diarylmethanes to Target Colorectal Cancer: Synthesis, In Vitro and In Silico Studies” (Biomolecules, 2022).

The structures appear in SMILES notation.

Series [1] concerns PARP. The series can be described thus: Western blot of cleaved PARP in HT-29 cells. In kind it is cell-based, human. On the procedure: (§1) Human CRC HT-29 and HCT116 cells were treated or not with the determined IC50 values of compounds (12a, 10a, 10b) for indicated times (6, 12, 24 and 48h) and then harvested with trypsin. For total protein extraction, collected samples of each condition were washed with PBS. Then, the total cell pool was centrifuged at 200× g for 5 min at 4 °C and homogenized in RIPA lysis buffer (50 mM HEPES, pH 7.5, 150 mM NaCl, 1% sodium deoxycholate, 1% NP-40, 0.1% Sodium Dodecyl Sulfate (SDS), […] of aprotinin) containing protease inhibitors according to the manufacturer’s instructions as previously described. Proteins (60 µg) were separated on 12.5% SDS-PAGE gels and transferred to polyvinylidene difluoride (PVDF) membranes. Membranes were probed with respective human antibodies against caspase-3, cleaved caspase-3, PARP and Akt, ERK, p38 MAP Kinases and its phosphorylated forms according to the manufacturer’s instructions. After incubation with appropriate secondary antibodies, blots were developed using the «Immobilon Western » substrate following the manufacturer’s protocol and G:BOX system (Syngene, Ozyme). Membranes were then reblotted with human anti-β-actin used as a loading control.
Cells were treated or not for 24 and 48 h, with IC50 values of compounds 10a, 10b and 12a, for human CRC HT-29 cells and compounds 10a and 12a for human CRC HCT116 cells. Total lysates were collected, and expression of apoptosis-related proteins was determined by Western blot analysis.

For the next series, the system named is P-ERK. Nature of the series: Western blot of P-ERK in HCT116 cells. In kind it is cell-based, human. To be noted: HCT116, treated at IC50, 6 and 12 h. On the procedure:
as §1, with “Membranes were then reblotted with human anti-β-actin used as a loading control.” left out
(§2) P-Akt, Akt, P-ERK, ERK, P-p38, p-38 sourced from human CRC HCT116 cells line were investigated. […] Total lysates were collected and expression of Akt, ERK and p38 MAPK proteins and their phosphorylated forms were determined by Western blot analysis.
Background: Immunoblotting shows a protein as a band on a membrane.

Series [2] concerns PARP. Nature of the series: Western blot of cleaved PARP in HCT116 cells. Format: cell-based, human. To be noted: HCT116, treated at IC50, 24 and 48 h. The method, then: as §1
(§3) Cells were treated or not for 24 and 48 h, with IC50 values of compounds 10a, 10b and 12a, for human CRC HT-29 cells and compounds 10a and 12a for human CRC HCT116 cells. […]

Series [3] has as its system human CRC HCT116 cells. The series can be described thus: MTT cell viability / IC50 on HCT116 cells. Format: cell-based. To be noted: for IC50: MTT assay, 1 to 50 µM, mean ± SEM of at least three experiments; for viability at 50 µM: HCT-116, MTT screening. The method, then:
(§4) Cells were grown in DMEM medium for HT-29 cells and RPMI 1640 medium for HCT116 cells, supplemented with 10% FBS, 1% L-glutamine and 100 U/mL penicillin and 100 μg/mL streptomycin. Cultures were maintained in a humidified atmosphere containing 5% CO2 at 37 °C. Stock solutions of each compound were used at 10^−2 M in DMSO and then diluted in culture medium to obtain the appropriate final concentrations. […] L929 cell line is a non-cancer cell line derived from L-strain (L cells) and has been grown in the Peptinov laboratory for years. L929 cells are murine adherent fibroblasts from subcutaneous connective tissue (areolar and adipose tissues). Cells were grown in DMEM medium supplemented with 10% FBS, 1% L-glutamine and 100 U/mL penicillin and 100 µg/mL streptomycin and maintained in a humidified incubator at 37 °C, 5% CO2. When confluence is at 80%, cells are trypsinyzed for 3 min and diluted in fresh medium. Each batch of cells is kept for 15 passages before being discarded and a new batch thawed.
(§5) All compounds were tested on the metabolic activity of the cells using the MTT colorimetric assay. Briefly, cells were seeded in 96-well microplates at 8 × 10^3 cells/well for human CRC HT-29 cells and 5 × 10^3 cells/well for human CRC HCT116 cells and grown for 24 h in appropriate culture medium prior to exposure or not to compounds (6–27) with concentration ranges from 1 to 50 µM. After 48 h of treatment, MTT (5 g/L in Phosphate-buffered saline (PBS)) was added and incubated for another 3 h. The MTT was then removed from the wells and 100 µL/well of DMSO were added to dissolve formazan. The optical density was detected with a microplate reader (Thermoscientific, Multiskan FC) at 550 nm and cell viability was expressed as a percentage of each treatment condition compared to control cells. IC50 values were calculated for all compounds from the dose–response curve.
In general terms: Formazan colour is commonly taken as a measure of viable cells.

Series [4] deals with human CRC HCT116 cells. The series can be described thus: DNA fragmentation, Cell Death Detection ELISA, HCT116. Format: cell-based. To be noted: treated at IC50, n-fold compared to control. On the procedure:
(§6) Human CRC HT-29 and HCT116 cells were treated or not with the determined IC50 values of compounds (12a, 10a, 10b) for 24 and 48 h and then harvested with trypsin. Histone release from the nucleus during apoptosis was analyzed using the Cell Death Detection ELISA^PLUS as previously described. Cytosol extracts from 10^5 cells of each condition were obtained and DNA fragmentation was measured according to the manufacturer’s protocol. Results were reported as n-fold compared to control cells.
A general note: An ELISA detects its analyte on a solid surface through an enzyme-linked reagent.

Series [5] relates to caspase-3. The series can be described thus: Western blot of cleaved caspase-3 in HCT116 cells. In kind it is cell-based, human. To be noted: HCT116, treated at IC50, 24 h (enhanced after 48 h). The method, then:
as §1, §3

The subject of the next series is P-Akt. Nature of the series: Western blot of P-Akt in HCT116 cells. In kind it is cell-based, human. To be noted: HCT116, treated at IC50, 6 and 12 h. On the procedure:
as §1, with “Membranes were then reblotted with human anti-β-actin used as a loading control.” left out
as §2

In series [6] the test system is human CRC HT-29 cells. Nature of the series: DNA fragmentation, Cell Death Detection ELISA, HT-29. In kind it is cell-based. To be noted: treated at IC50, n-fold compared to control. On the procedure:
as §6

The subject of series [7] is human CRC HT-29 cells. Nature of the series: MTT cell viability / IC50 on HT-29 cells. Format: cell-based. To be noted: for viability at 50 µM: HT-29; for IC50: MTT assay, 1 to 50 µM, mean ± SEM of at least three experiments. On the procedure: as §4, §5
For another series, the system named is P-p38. The series can be described thus: Western blot of P-p38 in HCT116 cells. To be noted: HCT116, treated at IC50, 6 and 12 h. In kind it is cell-based, human. The method, then:
as §1, with “Membranes were then reblotted with human anti-β-actin used as a loading control.” left out
as §2

The test system of series [8] is caspase-3. The series can be described thus: Western blot of cleaved caspase-3 in HT-29 cells. To be noted: HT-29, treated at IC50, within 48 h. In kind it is cell-based, human. The method, then: as §1, §3
Setting [9] is: Homo sapiens, 50 µM, 48 h, MTT screening.

Usually IC50 stands for the concentration that gives 50% inhibition. What is called viability is the share of living cells, or the viability signal relative to a control. Higher therefore signals better survival. For `COc1ccc(C(=Cc2ccc(C(F)(F)F)cc2)c2ccccn2)cc1` [Compound 12a, 2-(1-(4-methoxyphenyl)-2-(4-(trifluoromethyl)phenyl)vinyl)pyridine], the “cleaved PARP expression” value in the series with PARP [1] (HT-29, treated at IC50, 24 h) is “slightly enhanced”; in the series on PARP [1] (HT-29, treated at IC50, 48 h), “overexpressed”; in the series on PARP [2], “significant increase of cleaved PARP”. Further, the ERK phosphorylation entry with P-ERK is listed as “drastically decreased”. Further, the IC50 with human CRC HCT116 cells [3] (Homo sapiens, HCT-116, 48 h) was less than 35 µM; in the series with human CRC HCT116 cells [3] (48 h) it was 31.4 ± 1.74 µM; in the series on human CRC HT-29 cells [7] (48 h) it was 23 ± 1.27 µM. The viability at 50 µM in the series on human CRC HCT116 cells [3] (Homo sapiens, 48 h) is less than 50%; with human CRC HT-29 cells [7] (setting [9]) it was less than 50%. Further, the “HCT116 DNA Fragmentation (Fold)” value with human CRC HCT116 cells [4] (24 h) is recorded as 1.46 Fold; with human CRC HCT116 cells [4] (48 h), 6.97 Fold. The “cleaved caspase-3 expression” value in the series on caspase-3 [5] is reported as “cleavage of caspase-3”; with caspase-3 [8], “high expression of the cleaved form of caspase-3”. Besides, in the series with P-Akt, the P-Akt expression entry is “downregulated”. Moreover, the “HT-29 DNA Fragmentation (Fold)” value in the series with human CRC HT-29 cells [6] (24 h) is recorded as 2.90 Fold; with human CRC HT-29 cells [6] (48 h), 3.25 Fold. For the same compound, the p38 activation entry in the series on P-p38 is “no p38 activation was observed”.

As to `COc1ccc(C(=Cc2ccc(C(C)(C)C)cc2)c2ccccn2)cc1` [Compound 10a, 2-(2-(4-(tert-butyl)phenyl)-1-(4-methoxyphenyl)vinyl)pyridine], the “cleaved PARP expression” value with PARP [1] (HT-29, treated at IC50, 24 h) is “never been expressed”; in the series with PARP [1] (HT-29, treated at IC50, 48 h), “never been expressed”. The ERK phosphorylation entry in the series on P-ERK is “drastically decreased”. In addition, the IC50 is less than 35 µM in the series with human CRC HCT116 cells [3] (Homo sapiens, HCT-116, 48 h); 33.6 ± 0.71 µM in the series on human CRC HCT116 cells [3] (48 h); less than 30 µM in the series on human CRC HT-29 cells [7] (Homo sapiens, HT-29, 48 h); 25.7 ± 1.21 µM in the series on human CRC HT-29 cells [7] (48 h). Further, the viability at 50 µM in the series on human CRC HCT116 cells [3] (Homo sapiens, 48 h) is less than 50%; with human CRC HT-29 cells [7] (setting [9]), less than 50%. The “HCT116 DNA Fragmentation (Fold)” value in the series with human CRC HCT116 cells [4] (24 h) is reported as 0.83 Fold; with human CRC HCT116 cells [4] (48 h), 1.89 Fold. Further, the P-Akt expression entry with P-Akt is “inhibition is also observed”. Besides, the “HT-29 DNA Fragmentation (Fold)” value in the series with human CRC HT-29 cells [6] (24 h) turned out to be 1.12 Fold; with human CRC HT-29 cells [6] (48 h), 0.83 Fold. Further, in the series on P-p38, the p38 activation result is on record as “no p38 activation was observed”.

Turning to `COc1ccc(C(=Cc2ccc(C(C)(C)C)cc2)c2ccccn2)cc1` [Compound 10b, 2-(2-(4-(tert-butyl)phenyl)-1-(4-methoxyphenyl)vinyl)pyridine], the “cleaved PARP expression” value is “never been expressed” in the series on PARP [1] (HT-29, treated at IC50, 24 h) and “never been expressed” with PARP [1] (HT-29, treated at IC50, 48 h). For the same compound, the IC50 in the series with human CRC HCT116 cells [3] (48 h) was greater than 50 µM; with human CRC HT-29 cells [7] (48 h), 25.2 ± 1.28 µM. The “HT-29 DNA Fragmentation (Fold)” value was 1.24 Fold with human CRC HT-29 cells [6] (24 h) and 0.84 Fold in the series with human CRC HT-29 cells [6] (48 h). In the series with human CRC HT-29 cells [7] (50 µM, 48 h, MTT screening), the “Cell viability (%) HT-29” value is given as less than 50%.
